22 compounds from patent publication US5428048A, “Aryl-N-hydroxyureas as inhibitors of 5-lipoxygenase and anto-arteriosclerotic agents” (American Home Products Corporation, priority 1993, dated 1995) can be followed below.

One assay relates to LTB4 Synthesis. The assay is described as follows: Reverse Passive Arthus Reaction (pleurisy, LTB4 in pleural exudate). The following applies: for ED50: Rattus norvegicus, po, ED50 printed in parentheses; for ED50 / % Inhibition of LTB4: standard drugs; for % Inhibition LTB4 Synthesis: 25 mg/kg p.o. Type of assay: in vivo, male Lewis rats. On the procedure:
3. Reverse Passive Arthus Reaction
A reverse passive Arthus reaction is induced in the pleural cavity of male Lewis rats (150°-200 g; fasted overnight prior to use) by the intravenous administration of bovine serum albumin (BSA; 4 mg/0.2 ml) followed 30 minutes later by the injection of rabbit anti-BSA (1 mg/0.2 ml; lyophilized IgG fraction; Organon Teknika, West Chester, Pa.) into the right pleural space under halothane anesthesia. Drugs or vehicle (0.5% Tween-80) control are administered orally in a volume of 1 ml/100 g body weight at 1 hour prior to the anti-BSA. Animals are sacrificed at either the time of peak eicosanoid production (i.e. 5 minutes after anti-BSA for immunoreactive TxB2, 10 minutes for immunoreactive LTB4, 20 minutes for immunoreactive LTC4) or at the time of peak neutrophil infiltration (4 hours after anti-BSA) by CO2 inhalation. The pleural cavity is then exposed, the fluid exudate removed by gentle vacuum aspiration and the volume of exudate is recorded. For the determination of cellular infiltration, the pleural cavity is rinsed with 3 ml of 0.1% EDTA in sterile saline, and the recovered wash is pooled with the exudate. Cell number is determined on a model ZBI Coulter counter. For determination of eicosanoid production, undiluted pleural exudate is microfuged and the supernatant is extracted with ethanol (8-10 times volume). Extracts are either stored at -20° C., or are evaporated to dryness under a stream of N2 and reconstituted in radioimmunoassay (RIA) buffer.
Eicosanoids are quantitated by RIA according to the procedure specified by the RIA kit manufacturer (Advanced Magnetics, Cambridge, MA). Briefly, 100 μl of ^3 H-labeled eicosanoid and 100 μl of specific antibody ,are sequentially added to 100 μl of extracted pleural exudate in BGG-phosphate buffer which contains 0.01M phosphate, 0.1% bovine gamma globulin and 0.1% sodium azide at pH 7.0. Antibody-bound eicosanoid is separated from unbound eicosanoid by the addition of 750 μl of dextran (0.4%)-coated charcoal (Norit A) containing 0.1% sodium azide. The mixture is centrifuged at 2000 RPM at 5° C. for 15 minutes to pellet the charcoal and adsorbed unbound eicosanoid. Antibody-bound labeled eicosanoid is quantitated by counting in a liquid scintillation counter, and is correlated to concentration by a standard curve.

The next assay has as its target T1, 5-Lipoxygenase (Homo sapiens, UniProt P09917).
T1 construct: endogenous in cells; host or cells: whole blood of male human donors (results per 10^6 neutrophils)
T1 sequence (P09917 1-674): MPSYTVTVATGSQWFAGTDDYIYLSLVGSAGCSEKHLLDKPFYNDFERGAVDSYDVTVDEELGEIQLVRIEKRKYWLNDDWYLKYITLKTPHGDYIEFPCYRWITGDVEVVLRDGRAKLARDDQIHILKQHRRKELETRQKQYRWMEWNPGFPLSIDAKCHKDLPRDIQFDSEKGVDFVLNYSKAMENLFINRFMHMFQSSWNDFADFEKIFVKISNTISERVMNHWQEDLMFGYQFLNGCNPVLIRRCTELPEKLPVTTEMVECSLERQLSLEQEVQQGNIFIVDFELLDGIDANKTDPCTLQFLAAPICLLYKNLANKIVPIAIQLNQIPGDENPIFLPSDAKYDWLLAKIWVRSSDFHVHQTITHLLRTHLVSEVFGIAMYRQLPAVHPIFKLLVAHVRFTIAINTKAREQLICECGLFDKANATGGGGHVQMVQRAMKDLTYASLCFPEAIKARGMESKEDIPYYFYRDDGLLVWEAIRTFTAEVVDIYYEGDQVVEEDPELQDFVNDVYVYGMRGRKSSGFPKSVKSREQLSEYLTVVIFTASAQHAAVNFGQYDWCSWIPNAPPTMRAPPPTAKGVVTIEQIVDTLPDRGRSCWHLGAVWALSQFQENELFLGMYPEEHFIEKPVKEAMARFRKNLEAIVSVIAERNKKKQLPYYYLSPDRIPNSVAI
The assay is described as follows: Inhibition of 5-Lipoxygenase in Human Whole Blood (ionophore A23187-stimulated LTB4). Type of assay: cell-based. On the procedure:
1. Inhibition of 5-Lipoxygenase in Human Whole Blood
Blood is obtained in 50-100 ml quantities from male donors. White blood cell counts and differentials are made. Two ml of blood are placed in a 15 ml polypropylene test tube. Test compounds are solubilized in dimethylsulfoxide and diluted in 1:10 in 10% bovine serum albumin in phosphate buffered saline, pH 7.4 resulting in a final dimethylsulfoxide concentration of 0.1% in the blood. Then, solutions of test compounds are added to the blood in a shaking water bath at 37° C. for 10 minutes prior to the addition of 30 μM calcium ionophore (A23187, Sigma). After ionophore administration, whole blood samples are mixed and incubated for 20 minutes at 37° C. in a shaking water bath. Incubation is terminated by placing samples in an ice bath and immediately adding ethylene glycol-bis-(β-aminoethyl ether)-N, N,N',N'-tetraacetic acid (10 mM). Samples are mixed and centrifuged at 1200×g for 15 minutes at […]. Preparation of samples for evaluation by RIA or ELISA is carded out by the following protocol. Plasma is removed from sample tubes, placed in 15 ml polypropylene test tubes containing 8 ml methanol, and then vortexed to precipitate protein. Samples are stored at -70° C. overnight. The next day, samples are centrifuged at 200×g for 15 minutes at 4° C. to pellet the precipitate. Samples are dried in a Savant SpeedVac Concentrator, Model SVC 200H, reconstituted to original volume with ice cold RIA or ELISA buffer, and stored at -70° C. until assayed. The assay for eicosanoids (LTB4, TxB2, and PGE2) is performed as described by the manufacturer of the [^3 H]-RIA kit or ELISA kit (LTB4 -Amersham, TxB2 and PGE2 - Caymen Chemical).
The total eicosanoid level in 2 ml of blood is calculated and reported as ng/10^6 neutrophils. Significance is determined by a one-way analysis of variance with least significant difference (LSD) comparisons to control (p≤0.05) and IC50 's (μM) are determined by regression analysis (Finney, 1978). Drug effects are expressed as percent change from control values.

The next assay relates to Lipoxygenase. The assay is described as follows: Ex-Vivo Measurement of Lipoxygenase Inhibition in Orally Dosed Rats (LTB4 in A23187-stimulated blood). Details: species or system Male Sprague Dawley rats. The following applies: ex vivo rat, p.o., pretreatment 3 hr. On the procedure: 2. […] After an interval of 3 or 6 hours, the rats were anesthetized with metofane (n =4/group) and blood collected in heparinized tubes. White blood cell counts and differentials were made. One ml of blood from each animal was placed in a 5 ml plastic tube in a shaker bath at 37° C. A23187 at a final concentration of 10 μM was added to the blood and the blood vortexed and incubated for 15 min at 37° C. with gentle shaking. Incubation was terminated by vortexing sample and centrifuging immediately at 1200 xG for 15 min at 4° C. The plasma was transferred to 15 ml plastic tubes each containing 8 ml of methanol to precipitate protein followed by vortexing. The samples were stored at -70° C. overnight and the next day the samples were centrifuged at 800 xG for 15 min to pellet the precipitate. The samples were dried in a Savant SpeedVac Concentrator Model SVC 200H and reconstituted to the original volume with cold RIA or ELISA buffer. The reconstituted samples were stored at -70° C. until assayed. The assay for LTB4 was perforated according to the directions of the [^3 H]RIA kit or ELISA kit (Seragen). The total metabolite level in 1 ml of blood is calculated and reported as ng/10^6 neutrophils. Significance is determined by a one-way analysis of variance with LSD comparisons to control (p<0.05).

As to `NC1=NN(c2cccc(C(F)(F)F)c2)CC1` [BW755C, reference compound], the ED50 in the assay on LTB4 Synthesis was 23 mg/kg.

Regarding `O=C(O)Cc1ccccc1Nc1c(Cl)cccc1Cl` [Diclofenac, reference compound], the “% Inhibition of LTB4” value in the assay on LTB4 Synthesis (10 mg/kg p.o.) was determined as 0%.

As to `Cc1oc(-c2ccccc2)nc1CCOc1cccc(CN(O)C(N)=O)c1` [Example 2, 1-Hydroxy-1-[3-[2-(5-methyl-2-phenyl-oxazol-4-yl)-ethoxy]-benzyl]-urea], the inhibition at 1 µM against 5-Lipoxygenase was determined as 51%. Also, the “% Inhibition of LTB4” value with Lipoxygenase (dose 25 (mg/kg)) turned out to be 21%. Besides, the “% Inhibition LTB4 Synthesis” value with LTB4 Synthesis came to 53%.

On 5-Lipoxygenase, `COc1ccc(-c2nc(CCOc3ccc(CN(O)C(N)=O)cc3)c(C)o2)cc1` [Example 3, 1-Hydroxy-1-[4-[2-[2-(4-methoxy-phenyl)-5-methyl-oxazol-4-yl]-ethoxy]benzyl]-urea] had an inhibition at 1 µM of 57%. Besides, in the assay on Lipoxygenase (dose 25 (mg/kg)), the “% Inhibition of LTB4” value is reported as 32%.

Regarding `Cc1oc(-c2ccccc2)nc1CCOc1cccc(C(C)N(O)C(N)=O)c1` (centres unmarked) [Example 5, 1-Hydroxy-1-[1-[3-[2-(5-methyl-2-phenyl-oxazol-4-yl)-ethoxy]-phenyl]ethyl]-urea], at 1 µM the inhibition against 5-Lipoxygenase was 34%.

In turn, `Cc1oc(-c2ccccc2F)nc1CCOc1ccc(CN(O)C(N)=O)cc1` [Example 6, 1-[4-[2-[2-(2-Fluoro-phenyl)-5-methyl-oxazol-4-yl]-ethoxy]-benzyl]-1-hydroxy-urea] returned an inhibition at 1 µM on 5-Lipoxygenase of 54%. In the assay with Lipoxygenase (dose 10 (mg/kg)), the “% Inhibition of LTB4” value is 71%. Moreover, the “% Inhibition LTB4 Synthesis” value in the assay with LTB4 Synthesis was determined as 48%.

`Cc1oc(-c2ccc(F)cc2)nc1CCOc1ccc(CN(O)C(N)=O)cc1` [Example 8, 1-[4-[2-[2-(4-Fluoro-phenyl)-5-methyl-oxazol-4-yl)-ethoxy]-benzyl]-1-hydroxy-urea] yielded an inhibition at 1 µM against 5-Lipoxygenase of 70%. In addition, in the assay on Lipoxygenase (dose 10 (mg/kg)), the “% Inhibition of LTB4” value is given as 66%.

On 5-Lipoxygenase, `Cc1cc(OCCc2nc(-c3ccccc3)oc2C)cc(C)c1CN(O)C(N)=O` [Example 9, 1-[2,6-Dimethyl-4-[2-(5-methyl-2-phenyl-oxazol-4-yl)-ethoxy]-benzyl]-1-hydroxy-urea] gave an inhibition at 10 µM of 42%.

For the compound `Cc1ccc(-c2nc(CCOc3ccc(CN(O)C(N)=O)cc3)c(C)o2)cc1` [Example 11, 1-Hydroxy-1-[4-[2-(5-methyl-2-(p-tolyl)-oxazol-4-yl]-ethoxy]-benzyl]-urea], 1 µM produced 40% inhibition against 5-Lipoxygenase.

For `Cc1oc(-c2ccc(C(F)(F)F)cc2)nc1CCOc1ccc(CN(O)C(N)=O)cc1F` [Example 14], the inhibition at 1 µM on 5-Lipoxygenase amounted to 36%.

With `Cc1oc(-c2ccc(C(F)(F)F)cc2)nc1CCOc1c(Cl)cc(CN(O)C(N)=O)cc1Cl` [Example 15, 1-[3,5-Dichloro-4-[2-[5-methyl-2-(4-trifluoromethyl-phenyl)-oxazol-4-yl]ethoxy]-benzyl]-1-hydroxy-urea], the inhibition at 1 µM against 5-Lipoxygenase came out at 38%.

Compound `Cc1oc(-c2ccc(SC(F)(F)F)cc2)nc1CCOc1ccc(CN(O)C(N)=O)cc1` [Example 16, 1-Hydroxy-1-[4-[2-[5-methyl-2-(4-trifluoromethylsulfanyl-phenyl)-oxazol-4yl]-ethoxy]-benzyl]-urea] yielded an inhibition at 1 µM against 5-Lipoxygenase of 50%.

In the case of `NC(=O)N(O)Cc1ccc(OCCc2csc(-c3ccccc3)n2)cc1` [Example 17, 1-Hydroxy-1-[4-[2-(2-phenyl-thiazol-4-yl)-ethoxy]-benzyl]-urea], at 5-Lipoxygenase, the inhibition at 10 µM was determined as 93%.

Take `NC(=S)N(O)Cc1ccc(OCCc2csc(-c3ccccc3)n2)cc1` [Example 18]: at 5-Lipoxygenase, 10 µM produced 94% inhibition.

On 5-Lipoxygenase, `NC(=O)N(O)Cc1cccc(OCCc2csc(-c3ccc(C(F)(F)F)cc3)n2)c1` [Example 20, 1-Hydroxy-1-[3-[2-[2-(4-trifluoromethyl-phenyl)-thiazol-4-yl]-ethoxy]-benzyl]-urea] showed an inhibition at 1 µM of 30%.

`CN(CCOc1ccc(CN(O)C(N)=O)cc1)c1nc2ccccc2o1` [Example 22, 1-[4-[2-(-Benzoxazol-2-yl-methyl-amino)-ethoxy]-benzyl]-1-hydroxy-urea] returned an inhibition at 10 µM against 5-Lipoxygenase of 60%.

At 5-Lipoxygenase, `CC(=O)N(O)Cc1ccc(OCCN(C)c2nc3ccccc3o2)cc1` [Example 23, N-[4-[2-(Benzoxazol-2-yl-methyl-amino)-ethoxy]-benzyl]-N-hydroxy-acetamide] came in with an inhibition at 1 µM of 39%. The “% Inhibition of LTB4” value with Lipoxygenase (dose 25 (mg/kg)) stood at 78%.

Turning to `COC(=O)N(O)Cc1ccc(OCCN(C)c2nc3ccccc3o2)cc1` [Example 24], the inhibition at 10 µM on 5-Lipoxygenase stood at 77%.

As to `COc1ccc2c(c1)c(CC(=O)O)c(C)n2C(=O)c1ccc(Cl)cc1` [Indomethacin, reference compound], the “% Inhibition of LTB4” value in the assay with LTB4 Synthesis (4 mg/kg p.o.) is 12%.

For the compound `CC(C(=O)O)c1cccc(C(=O)c2ccccc2)c1` (centres unmarked) [Ketoprofen, reference compound], in the assay on LTB4 Synthesis (10 mg/kg p.o.), the “% Inhibition of LTB4” value was found to be 35%.

Turning to `COc1ccc2cc([C@H](C)C(=O)O)ccc2c1` [Naproxen, reference compound], the “% Inhibition of LTB4” value in the assay with LTB4 Synthesis (4 mg/kg p.o.) worked out at 0%.

With `O=C1CCN(c2ccccc2)N1` [Phenidone, reference compound], the ED50 with LTB4 Synthesis was 10 mg/kg.

What is called ED50 is the midpoint of the dose-response relation. As a reminder, the inhibition is the relative decrease from the control value, in per cent. High values mean strong suppression, low ones little suppression.
